Laboratory results published in patent US20230048888A1, “USE OF TRIAZOLOTRIAZINE DERIVATIVE IN TREATMENT OF DISEASES” (ZHEJIANG VIMGREEN PHARMACEUTICALS, LTD., priority 2019, published 2023).
Read-outs that look alike come from different tables or passages of the source.

How the values were obtained:
human ADORA2B = target: T1, human ADORA2B (Homo sapiens, UniProt P29275); assay: Calcium flow test (FLIPR), ADORA2B stably transfected HEK293; format: cell-based; conditions: Table 9
T1 construct: host or cells: HEK293
From the text: The binding of the A2AR agonist to A2AR could activate a downstream pathway to increase the intracellular calcium ion concentration. The antagonist would competitively occupy the binding site where the agonist binds to A2AR, thereby interrupting the intracellular signal transduction and leading to a change in the intracellular calcium ion concentration. By detecting the strength of the intracellular calcium ion signal, the antagonistic activities of the compound on human ADORA1, ADORA2A, ADORA2B and ADORA3 adenosine receptors were determined. […]
7) The FLIPR instrument software was operated; following a set program, 10 μL of experimental buffer salt solution was added to the cell plate; and fluorescence signals were read. Then, 10 μL of the reference compound of agonist at a predetermined concentration was added to the cell plate, and the fluorescence signals were read. After reading, data was exported by means of “Max-Min” and “Read 91 to Maximum allowed” in the software, the EC80 of each cell line was calculated, and an agonist with a concentration of 6×EC80 was prepared.
9) The FLIPR instrument software was operated; following a set program, 10 μL of the test compound and 10 μL of the reference compound were added at a predetermined concentration to the cell plate; and the fluorescence signals were read. […]

[1] = target: T2, Human adenosine ADORA2B receptor membrane protein (Homo sapiens, UniProt P29275); assay: Radioisotope ligand competitive binding, ADORA2B ([3H] DPCPX); conditions: ADORA2B (IC50, nM, n = 3), binding test
T2 construct: purchased PerkinElmer ES-013-M400UA
T2 sequence (P29275 1-332): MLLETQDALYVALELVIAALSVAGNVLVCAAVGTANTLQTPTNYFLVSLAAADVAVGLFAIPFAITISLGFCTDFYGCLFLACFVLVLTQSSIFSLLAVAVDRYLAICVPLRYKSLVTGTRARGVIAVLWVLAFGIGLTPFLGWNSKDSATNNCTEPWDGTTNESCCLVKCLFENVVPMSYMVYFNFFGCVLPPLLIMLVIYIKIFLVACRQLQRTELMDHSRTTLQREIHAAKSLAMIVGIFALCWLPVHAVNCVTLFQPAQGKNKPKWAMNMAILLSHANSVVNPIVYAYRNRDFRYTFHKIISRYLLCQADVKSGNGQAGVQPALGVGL
Method: ADORA2B: 50 mM HEPES pH 7.0, 5 mM MgCl2, 1 mM EDTA
4) Preparation of compounds: the test compounds and the reference compounds were separately diluted with 100% DMSO.
1 μL of a sample to be tested and 1 μL of a reference compound were added to a 96-well plate in sequence. […] 100 μL of cells and 100 μL of isotopes were added to all experimental wells. The 96-well plate was sealed; ADORA1, ADORA2B, and ADORA3 were incubated for 1 hour on a shaker (300 rpm) at room temperature (22° C.); and ADORA2A was incubated for 2 hours on a shaker (300 rpm) at room temperature (22° C.). At the same time, a GF/C filter plate was soaked with ADORA1, ADORA2A, ADORA2B, and ADORA3 by using 0.3% PEI for at least 30 minutes at room temperature, at 50 μL/well. After the incubation was completed, the incubated reaction system was collected onto the GF/C filter plate with a Harvester, washed 4 times and then dried for 0.5 hours in an oven at 50° C. The bottom of the dried GF/C filter plate was sealed with a film, 50 μL of scintillation solution was added to each well, which was then sealed with a Top-seal-A film. With Microbeta readings, the data was analyzed by GraphPad Prism 5.0.
% Inhibition=100×(1−(Sample_raw value−Low control_Average)/(High control_Average−Low control_Average))
The data was fitted with “log(inhibitor) vs response-variable slope” in GraphPad Prism 5.0 to obtain IC50.

[2] = Pharmacokinetics of test compounds in SD rats (15.2; IV and PO, mixed administration); format: in vivo; conditions: for AUC(0-t) / Cmax / half-life: male, Sprague-Dawley, rat, plasma; for half-life: read-out: T½ (converted)
Method: Administration dose: the compounds in this group were all administered in a mixed way, with 6 compounds in each group for mixed PO administration.
Blood was collected based on the blood collection points in the test protocol. 50 μL of plasma sample was added with acetonitrile (containing 5 ng/mL Verapamil) being 3 folds of the volume thereof; the resulting mixture was vortexed for 30 s, and then centrifuged for 15 min at 15,000 rpm at 4° C.; and 10μ L of supernatant was taken for LC-MS/MS analysis.
For each compound, 3 male SD rats weighing 200-220 g were fasted for one night before dosage, but had access to water.
Orally intragastric administration: before intragastric administration and at 0.083 h, 0.25 h, 0.5 h, 1 h, 2 h, 4 h, 8 h and 24 h after administration (for Compounds 40, 27, 40 and 47), or at 0.25 h, 0.5 h, 1 h, 4 h, 6 h and 8 h after administration (for Compounds 44 and 48), orbital blood was collected and put in a test tube that was treated with heparin sodium, and after centrifugation, the supernatant plasma was collected for LC-MS/MS analysis.
The plasma samples were processed according to the method for “sample treatment” and then analyzed by LC-MS/MS, accompanied with the standard curve and quality control samples. At a time point when the upper limit of quantification was exceeded, the samples were diluted 10 or 100 folds for analysis. All measured data were collected and processed by Analyst 1.6.3 software, and the data were calculated and processed with Microsoft Excel. With DAS 3.2.8 software, the pharmacokinetic parameters were calculated by the statistical moment method. The pharmacokinetic parameters mainly include Tmax, t1/2, Cmax, AUC(0-t), etc.

Cl_F_pred ([2]; SD rats, PO, 10 mg/kg) | F ([2]; SD rats, PO, 10 mg/kg) | AUC(0-t) ([2]; SD rats, PO, 10 mg/kg) | Cmax ([2]; SD rats, PO, 10 mg/kg) | half-life ([2]; SD rats, PO, 10 mg/kg) | half-life ([2]; po, […]) | AUC(0-t) ([2]; SD rats, PO, 2 mg/kg, mixed administration (6 compounds per group)) | Structure (SMILES) | IC50 (human ADORA2B) | IC50 ([1]; Table 10 (IC50)) | IC50 ([1]; Table 11)
– | – | – | – | – | – | – | Nc1nc(NCCc2ccc(NC3COC3)cc2)nc2nc(-c3ccco3)nn12 [Compound 22, 2-(furan-2-yl)-N5-(4-(oxetan-3-ylamino)phenethyl)-[1,2,4]triazolo[1,5-a][1,3,5]triazine-5,7-diamine] | 106 ± 29.2 nM | 344 ± 181 nM | 310 nM
139.069 mL/min/kg | 127.5% | 1070 ng·h/mL | 325 ng/mL | 2.42 h | – | – | COCCNc1ccc(CCNc2nc(N)n3nc(-c4ccco4)nc3n2)cc1 [Compound 27, 2-(furan-2-yl)-N5-(4-((2-methoxyethyl)amino)phenethyl)-[1,2,4]triazolo[1,5-a][1,3,5]triazine-5,7-diamine] | – | – | –
22.9228 mL/min/kg | 46.97% | 6600 ng·h/mL | 2440 ng/mL | 2.44 h | 0.23 h | 2360 ng·h/mL | Cn1nnc(-c2ccc(CCNc3nc(N)n4nc(-c5ccco5)nc4n3)cc2)n1 [Compound 40, N5-(4-(2-methyl-2H-tetrazol-5-yl)phenethyl)-2-(furan-2-yl)-[1,2,4]triazolo[1,5-a][1,3,5]triazine-5,7-diamine] | 194 ± 25.5 nM | 268 ± 87.5 nM | 242 nM
